Reference: patent US20240115672A1, “TREATMENT OF AN IOP CONDITION” (THE RESEARCH FOUNDATION FOR THE STATE UNIVERSITY OF NEW YORK, priority 2021, published 2024)

Columns and labels:
[1] = test system: MMP-1, MMP-2, MMP-9, MMP-13, PLAT, PAI-1 mRNA; assay: qRT-PCR gene expression in sheep TM and ciliary processes after tPA; format: in vivo
Description: Methods. Tissue Collection and Isolation of RNA. After animals were euthanized, eyes were immediately enucleated. Eyes were then opened anterior to the equator using a razor blade. The lens was removed from the anterior part, and the tissue was immersed in RNA stabilizing agent (RNAlater; Ambion, Carlsbad, CA) and placed at […] for transportation to the United States. Upon arrival in the United States, TM and ciliary processes (CP) were dissected on ice in the presence of RNA stabilizing agent as described previously. Dissected tissue was homogenized, and total RNA was extracted using TRIzol reagent (Gibco. Carlsbad, CA). Briefly, the tissue was homogenized in TRIzol, and chloroform was added to separate proteins from RNA. After centrifugation, the RNA-containing supernatant was aspirated. The RNA was precipitated with isopropanol, washed with 75% ethanol, treated with DNase, and column purified using a commercial kit (RNAeasy Mini Kit; Qiagen, Valencia, CA) in accordance with the manufacturer's instructions. RNA concentrations were determined with a spectrophotometer (Nanodrop; Thermo Scientific, Wilmington, DE) and the 260:280-nm absorbance ratio was calculated to determine RNA purity.
Quantitative Real-Time PCR (qRT-PCR) The RNA samples were reverse transcribed with random hexamers to cDNA using a reverse transcription kit (Quantitect; Qiagen) in accordance with the manufacturer's instructions. Quantitative RT-PCR was performed using a commercial kit (SYBR Green RT-PCR Reagents Kit; Applied Biosystems, Carlsbad, CA) in an ABI PRISM 7900HT sequence detector (Applied Biosystems). The sheep endogenous mRNA expression of matrix metalloproteinase-1 (MMP-1), matrix metalloproteinase-2 (MMP-2), matrix metalloproteinase-9 (MMP-9), matrix metalloproteinase-13 (MMP-13). and plasminogen activator tissue (PLAT) in the TM were investigated. Plasminogen activator inhibitor 1 (PA1-1) mRNA expression was measured in both TM and ciliary processes tissues. Relative quantification of gene expression was performed using the standard curve method. Mean threshold cycle (Ct) of the samples was compared among the groups by using the Ct. of 18S as an internal control. The DCt was calculated as the difference in Ct values derived from the target gene and the 18S gene. The DDCt was calculated as DCt of the normalized assayed genes in the treated samples minus DCt of normalized assayed genes in the naive control samples. Relative expression was calculated by the 2exp DD Ct formula.

[2] = test system: MMP-2, MMP-9, MMP-13 expression in HTM cells; assay: MMP expression in HTM cells (Examples 17, 18); format: cell-based, human; settings: PA treated HTM cells; p<0.0001
[3] = intravitreal; toxicity attributed to arginine in the commercial preparations; cited from earlier work
sheep = assay: Sheep given tPA or arginine concurrently with prednisolone (Example 3 Protocol 2, Example 4); format: in vivo; settings: 11 days
Experimental: Protocol 2. In a second set of experiments, arginine was added to the BSS vehicle administered to the left eye to control for the relatively high concentration of the amino acid in the commercially available tPA lyophilisate. In these experiments all right eyes received 0.1 mg tPA, which concomitantly delivered 4.23 mg of arginine into the vitreous, and the left eye received this same amount of arginine, absent the tPA. On Day 1, prednisolone treatments were also begun simultaneously on both eyes.
Methods. In this experiment, the inventor sought to detect the effects of tPA treatment on prevention of steroid-induced IOP elevation. In 4 sheep tPA was injected in one eye (100 μg) and they were started on prednisolone acetate three times a day in both eyes. Animals were monitored for 11 days on continuous treatment.

In the case of “tPA: recombinant human tissue plasminogen activator (ACTILYSE; Boehringer Ingelheim), enzymatically active”, the MMP1 expression ([1]; sheep, after tPA) is reported as “up-regulates”, the MMP2 expression ([1]; sheep, after tPA) is reported as “up-regulates” and the MMP9 expression ([1]; sheep, after tPA) is reported as “up-regulates”. For the same substance, the MMP13 expression ([1]; sheep, after tPA) was “up-regulates”, the PAI-1 expression ([1]; trabecular meshwork (TM) and ciliary processes) was “up-regulating” and the “expression (FIG. 17C) compared to PA+BSA treated cells” value [2] was “significant upregulation”. For the same substance, the “doses with reported retinal toxicity” value [3] was 50-100 lag, the “effect on steroid-induced IOP elevation” value (sheep; 100 μg in one eye concurrent with prednisolone acetate three times a day) was “prevented IOP elevation” and the ocular findings (sheep; 100 μg tPA) was “Transient injection and corneal clouding was observed in some eyes”.
